The source of these data is article PMC5513037, “Examining the influence of specificity ligands and ATP-competitive ligands on the overall effectiveness of bivalent kinase inhibitors” (Proteome Science, 2017).

What all share (type): binding
In one assay the target is T1, ACVR1 (Homo sapiens, UniProt Q04771).
T1 construct: endogenous in cells; host or cells: K562
T1 sequence (Q04771 21-509): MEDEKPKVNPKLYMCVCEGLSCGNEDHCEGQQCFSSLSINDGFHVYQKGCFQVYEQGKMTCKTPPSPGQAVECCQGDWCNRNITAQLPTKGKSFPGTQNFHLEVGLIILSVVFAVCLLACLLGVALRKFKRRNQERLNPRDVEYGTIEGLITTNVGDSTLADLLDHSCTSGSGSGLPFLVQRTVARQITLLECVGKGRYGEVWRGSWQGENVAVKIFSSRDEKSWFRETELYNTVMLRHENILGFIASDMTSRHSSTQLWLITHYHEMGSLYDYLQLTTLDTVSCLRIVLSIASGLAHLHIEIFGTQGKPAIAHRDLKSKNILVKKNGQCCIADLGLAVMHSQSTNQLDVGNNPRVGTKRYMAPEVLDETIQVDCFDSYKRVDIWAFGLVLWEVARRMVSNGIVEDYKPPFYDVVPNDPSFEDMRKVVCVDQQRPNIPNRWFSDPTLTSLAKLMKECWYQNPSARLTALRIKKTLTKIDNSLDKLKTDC
Briefly: KAM-matrix competition in K562 lysate. On the procedure: (§1) Supplement 12953_2017_125_MOESM1_ESM.zip/MS_Supp Info.xlsx, sheet "KAM" | column: 10 uM KAM; 1 uM KAM; 0.1 uM KAM; 0.01 uM KAM; 0.001 uM KAM; RB50

A further assay addresses T2, ADCK1 (Homo sapiens, UniProt Q86TW2).
T2 construct: endogenous in cells; host or cells: K562
T2 sequence (Q86TW2 1-530): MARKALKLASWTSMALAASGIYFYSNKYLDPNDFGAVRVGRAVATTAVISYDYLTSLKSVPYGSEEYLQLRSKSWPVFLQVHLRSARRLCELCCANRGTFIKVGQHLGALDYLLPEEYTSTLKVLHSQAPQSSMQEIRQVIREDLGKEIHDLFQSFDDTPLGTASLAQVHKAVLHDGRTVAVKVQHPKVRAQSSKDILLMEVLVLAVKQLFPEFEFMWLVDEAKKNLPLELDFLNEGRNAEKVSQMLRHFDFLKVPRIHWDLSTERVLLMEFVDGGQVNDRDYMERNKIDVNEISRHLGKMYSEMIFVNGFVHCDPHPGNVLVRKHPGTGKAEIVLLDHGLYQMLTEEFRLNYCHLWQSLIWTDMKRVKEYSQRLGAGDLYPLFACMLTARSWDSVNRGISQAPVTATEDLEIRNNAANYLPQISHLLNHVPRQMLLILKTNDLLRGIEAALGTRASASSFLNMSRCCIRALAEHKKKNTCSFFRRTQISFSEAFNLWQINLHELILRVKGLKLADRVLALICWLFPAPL
Briefly: KAM-matrix competition in K562 lysate. How it is done: as §1

Another assay deals with T3, BRD2 (Homo sapiens, UniProt P25440).
T3 construct: endogenous in cells; host or cells: K562
T3 sequence (P25440 whole entry): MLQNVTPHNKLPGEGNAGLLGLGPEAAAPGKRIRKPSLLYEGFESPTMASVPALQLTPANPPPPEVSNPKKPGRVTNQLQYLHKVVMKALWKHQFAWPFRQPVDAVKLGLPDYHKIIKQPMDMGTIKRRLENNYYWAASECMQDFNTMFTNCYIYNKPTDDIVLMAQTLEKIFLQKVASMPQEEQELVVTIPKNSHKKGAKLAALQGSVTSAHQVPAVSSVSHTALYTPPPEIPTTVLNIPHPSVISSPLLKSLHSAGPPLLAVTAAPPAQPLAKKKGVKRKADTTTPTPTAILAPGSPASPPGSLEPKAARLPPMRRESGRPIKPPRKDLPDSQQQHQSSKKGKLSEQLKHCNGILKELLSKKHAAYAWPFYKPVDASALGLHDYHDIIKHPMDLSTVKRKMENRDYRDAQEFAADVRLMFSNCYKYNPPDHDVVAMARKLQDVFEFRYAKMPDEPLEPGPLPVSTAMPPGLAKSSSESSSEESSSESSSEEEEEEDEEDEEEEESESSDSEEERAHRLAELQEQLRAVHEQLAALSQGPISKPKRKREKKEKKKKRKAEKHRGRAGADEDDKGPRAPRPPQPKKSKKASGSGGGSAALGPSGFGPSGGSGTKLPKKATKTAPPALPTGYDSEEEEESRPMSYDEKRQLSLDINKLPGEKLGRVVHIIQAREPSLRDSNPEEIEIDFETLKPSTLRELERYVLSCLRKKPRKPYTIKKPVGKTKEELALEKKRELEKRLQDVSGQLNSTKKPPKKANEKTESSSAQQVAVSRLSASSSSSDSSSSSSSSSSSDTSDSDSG
Briefly: KAM-matrix competition in K562 lysate. On the procedure:
as §1

The target of the next assay is T4, EPHB4 (Homo sapiens, UniProt P54760).
T4 construct: endogenous in cells; host or cells: K562
T4 sequence (P54760 16-987): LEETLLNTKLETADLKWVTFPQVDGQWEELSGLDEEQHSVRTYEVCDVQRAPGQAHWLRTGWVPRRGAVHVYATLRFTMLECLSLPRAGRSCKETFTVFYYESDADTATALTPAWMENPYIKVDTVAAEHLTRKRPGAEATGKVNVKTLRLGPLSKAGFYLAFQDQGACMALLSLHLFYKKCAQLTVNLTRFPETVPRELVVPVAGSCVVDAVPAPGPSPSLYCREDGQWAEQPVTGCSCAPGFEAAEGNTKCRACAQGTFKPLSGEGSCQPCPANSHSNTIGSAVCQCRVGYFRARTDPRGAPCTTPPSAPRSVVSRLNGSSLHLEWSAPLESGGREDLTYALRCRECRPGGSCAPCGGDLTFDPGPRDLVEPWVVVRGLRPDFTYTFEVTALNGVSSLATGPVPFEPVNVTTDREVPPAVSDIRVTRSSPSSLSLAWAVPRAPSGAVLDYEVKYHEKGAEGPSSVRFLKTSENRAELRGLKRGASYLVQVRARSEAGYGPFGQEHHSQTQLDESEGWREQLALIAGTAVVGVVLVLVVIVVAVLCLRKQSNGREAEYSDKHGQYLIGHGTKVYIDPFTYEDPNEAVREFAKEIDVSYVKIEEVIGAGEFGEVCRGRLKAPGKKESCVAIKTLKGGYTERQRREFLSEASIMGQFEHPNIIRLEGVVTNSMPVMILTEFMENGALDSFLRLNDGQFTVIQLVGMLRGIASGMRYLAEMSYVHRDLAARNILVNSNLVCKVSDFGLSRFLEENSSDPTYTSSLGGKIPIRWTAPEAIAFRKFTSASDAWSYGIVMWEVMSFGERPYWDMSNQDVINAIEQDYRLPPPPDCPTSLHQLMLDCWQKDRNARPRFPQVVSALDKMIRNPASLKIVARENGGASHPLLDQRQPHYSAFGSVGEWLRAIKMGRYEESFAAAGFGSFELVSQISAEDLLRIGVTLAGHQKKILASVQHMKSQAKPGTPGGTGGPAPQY
Nature of the assay: KAM-matrix competition in K562 lysate. How it is done: as §1

The target of a further assay is T5, MTOR (Homo sapiens, UniProt P42345).
T5 construct: endogenous in cells; host or cells: K562
Briefly: KAM-matrix competition in K562 lysate. How it is done: as §1

For a further assay, the target named is T6, PLK1 (Homo sapiens, UniProt P53350).
T6 construct: endogenous in cells; host or cells: K562
T6 sequence (P53350 whole entry): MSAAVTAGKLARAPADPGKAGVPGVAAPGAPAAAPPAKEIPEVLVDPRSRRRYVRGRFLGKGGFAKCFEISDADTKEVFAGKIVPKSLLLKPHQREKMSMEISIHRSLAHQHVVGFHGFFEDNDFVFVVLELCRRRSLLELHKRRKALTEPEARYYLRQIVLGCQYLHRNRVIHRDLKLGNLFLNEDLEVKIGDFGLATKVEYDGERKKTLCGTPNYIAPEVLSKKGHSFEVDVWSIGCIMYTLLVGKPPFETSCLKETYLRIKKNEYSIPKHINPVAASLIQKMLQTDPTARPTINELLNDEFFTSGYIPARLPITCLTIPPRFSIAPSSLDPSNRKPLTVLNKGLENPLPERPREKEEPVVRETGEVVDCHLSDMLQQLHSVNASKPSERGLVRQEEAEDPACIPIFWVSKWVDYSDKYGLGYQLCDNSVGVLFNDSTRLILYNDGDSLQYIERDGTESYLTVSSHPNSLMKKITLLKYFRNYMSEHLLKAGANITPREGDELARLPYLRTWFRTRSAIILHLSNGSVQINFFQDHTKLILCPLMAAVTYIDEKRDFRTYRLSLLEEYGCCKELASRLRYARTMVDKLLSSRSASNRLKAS
Nature of the assay: KAM-matrix competition in K562 lysate. How it is done: as §1

In the next assay the target is T7, CHD5 (Homo sapiens, UniProt Q8TDI0).
T7 construct: endogenous in cells; host or cells: K562
T7 sequence (Q8TDI0 whole entry): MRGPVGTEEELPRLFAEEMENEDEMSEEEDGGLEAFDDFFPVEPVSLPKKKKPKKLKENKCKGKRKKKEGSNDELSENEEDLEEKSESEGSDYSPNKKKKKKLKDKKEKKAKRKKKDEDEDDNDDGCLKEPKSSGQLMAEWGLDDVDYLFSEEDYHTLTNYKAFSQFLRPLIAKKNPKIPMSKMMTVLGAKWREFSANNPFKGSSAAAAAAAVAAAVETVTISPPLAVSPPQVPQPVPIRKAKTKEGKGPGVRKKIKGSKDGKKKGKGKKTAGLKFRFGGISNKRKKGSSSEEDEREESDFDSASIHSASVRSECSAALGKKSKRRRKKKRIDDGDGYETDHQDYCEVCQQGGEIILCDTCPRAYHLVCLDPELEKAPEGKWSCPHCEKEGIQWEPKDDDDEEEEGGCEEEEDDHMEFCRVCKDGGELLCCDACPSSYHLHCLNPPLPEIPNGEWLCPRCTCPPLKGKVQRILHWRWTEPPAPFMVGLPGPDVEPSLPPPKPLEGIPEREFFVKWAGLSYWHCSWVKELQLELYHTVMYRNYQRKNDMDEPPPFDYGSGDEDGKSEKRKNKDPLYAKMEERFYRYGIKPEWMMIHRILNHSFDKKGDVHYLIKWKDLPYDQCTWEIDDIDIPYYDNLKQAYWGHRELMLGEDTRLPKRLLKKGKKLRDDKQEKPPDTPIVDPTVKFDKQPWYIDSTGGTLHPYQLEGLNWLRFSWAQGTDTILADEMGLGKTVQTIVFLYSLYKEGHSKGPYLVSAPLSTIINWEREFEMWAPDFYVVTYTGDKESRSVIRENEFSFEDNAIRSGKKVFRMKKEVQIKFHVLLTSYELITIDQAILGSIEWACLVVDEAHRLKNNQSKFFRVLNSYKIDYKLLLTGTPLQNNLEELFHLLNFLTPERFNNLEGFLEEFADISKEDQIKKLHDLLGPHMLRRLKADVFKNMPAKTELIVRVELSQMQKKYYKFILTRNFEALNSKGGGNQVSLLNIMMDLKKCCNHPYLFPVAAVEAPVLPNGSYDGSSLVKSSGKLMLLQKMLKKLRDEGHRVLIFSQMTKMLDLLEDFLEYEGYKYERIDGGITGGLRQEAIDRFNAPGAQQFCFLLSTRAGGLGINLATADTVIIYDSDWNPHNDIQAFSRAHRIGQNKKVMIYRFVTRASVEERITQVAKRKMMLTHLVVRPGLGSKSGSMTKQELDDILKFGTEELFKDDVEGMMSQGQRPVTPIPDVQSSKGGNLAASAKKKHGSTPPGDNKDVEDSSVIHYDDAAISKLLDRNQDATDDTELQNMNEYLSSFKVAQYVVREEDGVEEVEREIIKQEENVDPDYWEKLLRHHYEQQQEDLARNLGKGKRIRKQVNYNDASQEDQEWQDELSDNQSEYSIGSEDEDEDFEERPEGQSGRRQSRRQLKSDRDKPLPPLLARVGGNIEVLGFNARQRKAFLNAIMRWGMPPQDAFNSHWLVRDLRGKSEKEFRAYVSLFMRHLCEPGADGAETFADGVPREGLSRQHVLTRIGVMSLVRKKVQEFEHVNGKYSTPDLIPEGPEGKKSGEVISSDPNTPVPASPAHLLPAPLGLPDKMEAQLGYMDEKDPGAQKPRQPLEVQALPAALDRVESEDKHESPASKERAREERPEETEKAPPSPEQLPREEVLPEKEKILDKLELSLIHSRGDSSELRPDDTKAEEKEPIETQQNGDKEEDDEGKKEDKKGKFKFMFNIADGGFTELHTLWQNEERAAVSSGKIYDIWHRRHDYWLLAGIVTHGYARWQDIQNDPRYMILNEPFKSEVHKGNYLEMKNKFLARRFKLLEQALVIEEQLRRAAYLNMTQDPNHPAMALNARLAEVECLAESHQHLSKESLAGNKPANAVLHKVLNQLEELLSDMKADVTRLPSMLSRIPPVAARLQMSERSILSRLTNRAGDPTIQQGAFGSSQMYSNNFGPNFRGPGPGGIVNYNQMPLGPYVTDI
Nature of the assay: Imatinib-matrix competition in K562 lysate. The note with it: read-out: RB50 (the source's name). An excerpt:
(§2) Data were visualized for further analysis using Spotfire DXP.

A further assay deals with T8, PRKDC (Homo sapiens, UniProt P78527).
T8 construct: endogenous in cells; host or cells: K562
Briefly: Imatinib-matrix competition in K562 lysate. The conditions noted are these: read-out: RB50 (the source's name).
Description: as §2

Setting [1] is: read-out: RB50 (the source's name).
Setting [2] is: KAM 0.001-10 uM, read-out: RB50 (the source's name).
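Wherever 0.001 uM KAM is given: median log10 fold change of treatment over DMSO control.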
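Wherever 0.01 uM KAM is given: median log10 fold change of treatment over DMSO control.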
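Wherever 0.1 uM KAM is given: median log10 fold change of treatment over DMSO control.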
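Wherever 1 uM KAM is given: median log10 fold change of treatment over DMSO control.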
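Wherever 10 uM KAM is given: median log10 fold change of treatment over DMSO control.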

For the compound `N#CCc1ccc(Nc2nc(NCCCN)cc(Nc3cc(C4CC4)[nH]n3)n2)cc1` [KAM], the “median Log10 fold change” value at ACVR1 (0.001 uM KAM) is on record as 0.003413; on ACVR1 (0.01 uM KAM) it was -0.1656; on ACVR1 (0.1 uM KAM) it was -0.6449; at ACVR1 (1 uM KAM) it was -0.6498; at ACVR1 (10 uM KAM), -0.7414; on BRD2 (0.001 uM KAM) it was -0.02696. Further, the “median Log10 fold change” value on BRD2 (0.01 uM KAM) was -0.0008346; on BRD2 (0.1 uM KAM), -0.172; at BRD2 (1 uM KAM), -0.286; on BRD2 (10 uM KAM) it was -0.3099; at EPHB4 (0.001 uM KAM), -0.01696; on EPHB4 (0.01 uM KAM), -0.007903. In addition, the results for the “median Log10 fold change” value at EPHB4 (0.1 uM KAM), at EPHB4 (1 uM KAM) and on EPHB4 (10 uM KAM) were -0.1428, -0.3696 and -0.517, respectively. Also, the IC50 was 0.027 µM at ACVR1 (setting [1]); more than 10 µM on ADCK1 (setting [2]); 1.89 µM on BRD2 (setting [1]); 0.717 µM at EPHB4 (setting [1]); more than 10 µM at MTOR (setting [2]); more than 10 µM at PLK1 (setting [2]). The entries for the “0.001 uM KAM” value at ADCK1 (relative to 0 uM KAM = 0), on MTOR (relative to 0 uM KAM = 0) and on PLK1 (relative to 0 uM KAM = 0) were -0.001358, -0.05296 and -0.04372, respectively. In addition, the “0.01 uM KAM” value was -0.0336 on ADCK1 (relative to 0 uM KAM = 0), -0.02855 on MTOR (relative to 0 uM KAM = 0) and 0.0006975 on PLK1 (relative to 0 uM KAM = 0). Further, the “0.1 uM KAM” value on ADCK1 (relative to 0 uM KAM = 0) is listed as -0.06203; on MTOR (relative to 0 uM KAM = 0), -0.0574; at PLK1 (relative to 0 uM KAM = 0), -0.07002. For the same compound, the “1 uM KAM” value on ADCK1 (relative to 0 uM KAM = 0) is given as -0.1949; at MTOR (relative to 0 uM KAM = 0), -0.03577; on PLK1 (relative to 0 uM KAM = 0) it was -0.1195. Further, the entries for the “10 uM KAM” value on ADCK1 (relative to 0 uM KAM = 0), on MTOR (relative to 0 uM KAM = 0) and at PLK1 (relative to 0 uM KAM = 0) were -0.2595, -0.01614 and -0.1377, respectively.

Consider `Cc1ccc(NC(=O)c2ccc(CN3CCN(C)CC3)cc2)cc1Nc1nccc(-c2cccnc2)n1` [Imatinib], for which the IC50 on CHD5 and at PRKDC was more than 10 µM throughout.
